Laboratory results published in ChEMBL document CHEMBL5360528, “A systematic review on the kappa opioid receptor and its ligands: New directions for the treatment of pain, anxiety, depression, and drug abuse” (Eur J Med Chem, 2022).
Where a SMILES comes first, the peptide text is derived from it. [ ]: non-standard residue; d: D form. βAla = NCCC(=O)O

Experiments:
[1] = target: T1, Delta-type opioid receptor (Homo sapiens, UniProt P41143); assay: Binding affinity to human DOR assessed as inhibition constant
Mus musculus [2] = assay: Antinociceptive activity in ip dosed mouse assessed as inhibition of acetic acid-induced abdominal constrictions by writhing test; type: functional
[3] = target: T2, Kappa-type opioid receptor (Homo sapiens, UniProt P41145); assay: Binding affinity to KOR (unknown origin) expressed in CHO-K1 cell membrane assessed as stimulation of [35S]-GTPgammaS binding incubated for 1.5 hrs by scintillation spectroscopy analysis relative DAMGO; type: cell membranes
[4] = target: T2, Kappa-type opioid receptor; assay: Agonist activity at KOR (unknown origin) by measuring cAMP inhibition; type: functional
Mu-type opioid receptor [5] = target: T3, Mu-type opioid receptor (Homo sapiens, UniProt P35372); assay: Binding affinity to MOR (unknown origin) assessed as inhibition constant by radioligand binding assay
Mus musculus [6] = assay: Antinociceptive activity in sc dosed mouse assessed as inhibition of acetic acid-induced abdominal constrictions by writhing test; type: functional
Mus musculus [7] = assay: Antinociceptive activity in sc dosed mouse measured after 60 mins by warm water tail-flick assay; type: functional; settings: 1 h
[8] = target: T2, Kappa-type opioid receptor; assay: Binding affinity to human KOR expressed in HEK293 cells assessed as inhibition of forskolin-stimulated cAMP accumulation by HTRF assay; type: cell-based
[9] = target: T2, Kappa-type opioid receptor; assay: Binding affinity to KOR (unknown origin) assessed as inhibition constant
[10] = target: T1, Delta-type opioid receptor; assay: Binding affinity to DOR (unknown origin) assessed as inhibition constant by ratio ligand binding assay
Mus musculus [11] = assay: Antinociceptive activity in CD-1 mouse assessed as maximum possible effect at 10 nmol, icv measured after 15 mins by tail-flick test; type: functional; settings: 0.25 h
Mus musculus [12] = assay: Analgesic activity in sc dosed acetic acid induced mouse assessed as assessed as reduction in acetic acid induced writhing […]; type: functional
[13] = target: T2, Kappa-type opioid receptor; assay: Binding affinity to wild type human KOR assessed as inhibition constant
Mus musculus [14] = organism: Mus musculus; assay: Analgesic activity in acetic acid induced mouse assessed as assessed as reduction in acetic acid induced writhing […]; type: functional
[15] = target: Kappa-type opioid receptor (Cavia porcellus) (UniProt P41144); assay: Agonist activity at KOR in guinea pig brain membranes assessed as stimulation of [35S]GTPgammaS binding relative to control; type: functional, cell membranes; settings: Membrane, filed as agonist
Mu-type opioid receptor [16] = target: T3, Mu-type opioid receptor; assay: Agonist activity at human MOR expressed in CHO-K1 cells assessed as inhibition of forskolin-stimulated cAMP accumulation incubated for 45 mins by cAMP HTRF assay; type: functional, cell-based
Mus musculus [17] = organism: Mus musculus; assay: Antinociceptive activity in Sprague-Dawley mouse assessed as inhibition of acetic acid-induced abdominal constrictions in presence of naloxone; type: functional
Mus musculus [18] = organism: Mus musculus; assay: Antinociceptive activity in Sprague-Dawley mouse assessed as inhibition of acetic acid-induced abdominal constrictions; type: functional
Mus musculus [19] = assay: Antinociceptive activity in CFA-induced mechanical allodynia in CD1 mouse model assessed as reduction in nociceptive response by measuring effective dose at ip administration; type: functional
Mus musculus [20] = assay: Antinociceptive activity in CFA-induced mechanical allodynia in CD1 mouse model assessed as reduction in nociceptive response by measuring effective dose at iv administration; type: functional
Mus musculus [21] = assay: Analgesic activity in iv dosed DBTC-induced neuropathic pain CD1 mouse model assessed as effective dose measured for 1 weeks; type: functional; settings: CD1, 168 h
Mus musculus [22] = organism: Mus musculus; assay: Antinociceptive activity in CFA-induced mechanical allodynia CD1 mouse model assessed as reduction in mechanical allodynia; type: functional
Mus musculus [23] = assay: Antinociceptive activity in C57BL/6 mouse model of acute thermal pain assessed as paw withdrawal thermal threshold time at 1 mg/kg, po measured after 4 hrs by hot plate test; type: functional
[24] = target: T2, Kappa-type opioid receptor; assay: Binding affinity to human recombinant KOR assessed as inhibition constant
Mu-type opioid receptor [25] = target: T3, Mu-type opioid receptor; assay: Binding affinity to human MOR expressed in HEK293 cells assessed as inhibition constant by GTPgammaS assay; type: cell-based
[26] = target: T1, Delta-type opioid receptor; assay: Binding affinity to human DOR expressed in HEK293 cells assessed as inhibition constant by GTPgammaS assay; type: cell-based
[27] = Half life in C57BL/6 mouse brain at 20 mg/kg, ip by LC-MS/MS analysis; type: ADME, organism-based
[28] = Half life in C57BL/6 mouse […] at 20 mg/kg, ip by LC-MS/MS analysis; type: ADME, organism-based
[29] = Half life in C57BL/6 mouse plasma at 20 mg/kg, ip by LC-MS/MS analysis; type: ADME, organism-based
[30] = Half life in human; type: ADME
[31] = Tmax in Sprague-Dawley rat at 1 mg/kg, iv by LC-MS analysis; type: ADME, organism-based; settings: in vivo
Mus musculus [32] = organism: Mus musculus; assay: Antinociceptive activity in C57BL/6 mouse model of acute thermal pain assessed as paw withdrawal thermal threshold time by hot plate test; type: functional
[33] = target: T1, Delta-type opioid receptor; assay: Binding affinity human DOR expressed in CHO cells assessed as inhibition constant by radio ligand binding assay; type: cell-based
Mus musculus [34] = assay: Antinociceptive activity in sc dosed Ach-induced mouse assessed as inhibition of abdominal constriction; type: functional
[35] = target: Kappa-type opioid receptor (Mus musculus, UniProt P33534); assay: Agonist activity at KOR in mouse vas deferens assessed as inhibition of electrically evoked vas deferens contraction
[36] = target: T2, Kappa-type opioid receptor; assay: Agonist activity at wild type human KOR receptor expressed in CHO cells assessed as stimulation of [35S]GTPgammaS binding measured after 30 mins by scintillation counting assay; type: functional, cell-based
[37] = target: Kappa-type opioid receptor (Cavia porcellus, UniProt P41144); assay: Agonist activity at KOR in guinea pig brain membranes assessed as stimulation of [35S]GTPgammaS binding measured after 1 hr by liquid scintillation counting analysis; type: functional, cell membranes, Membrane
Kappa-type opioid receptor (Cavia porcellus, UniProt P41144), sequence (P41144 whole entry): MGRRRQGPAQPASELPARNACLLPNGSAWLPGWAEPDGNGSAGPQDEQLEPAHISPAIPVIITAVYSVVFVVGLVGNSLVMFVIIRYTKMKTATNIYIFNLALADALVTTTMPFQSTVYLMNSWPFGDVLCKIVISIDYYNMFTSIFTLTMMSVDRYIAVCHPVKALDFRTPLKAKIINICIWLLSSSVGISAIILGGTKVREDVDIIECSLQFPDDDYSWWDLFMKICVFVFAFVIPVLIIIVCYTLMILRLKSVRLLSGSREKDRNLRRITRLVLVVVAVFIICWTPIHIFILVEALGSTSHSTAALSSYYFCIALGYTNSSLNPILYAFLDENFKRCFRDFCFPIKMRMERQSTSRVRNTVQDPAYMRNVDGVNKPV

T1 sequence (P41143 whole entry): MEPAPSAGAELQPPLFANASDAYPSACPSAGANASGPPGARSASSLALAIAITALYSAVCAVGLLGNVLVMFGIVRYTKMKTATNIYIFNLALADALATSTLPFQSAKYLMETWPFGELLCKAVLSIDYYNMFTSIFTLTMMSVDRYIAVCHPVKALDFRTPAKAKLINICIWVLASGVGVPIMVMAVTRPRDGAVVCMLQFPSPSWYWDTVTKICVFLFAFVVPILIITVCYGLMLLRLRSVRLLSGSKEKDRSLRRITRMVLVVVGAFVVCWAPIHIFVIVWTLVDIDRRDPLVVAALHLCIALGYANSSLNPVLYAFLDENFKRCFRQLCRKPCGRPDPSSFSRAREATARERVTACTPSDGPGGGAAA
T3 sequence (P35372 whole entry): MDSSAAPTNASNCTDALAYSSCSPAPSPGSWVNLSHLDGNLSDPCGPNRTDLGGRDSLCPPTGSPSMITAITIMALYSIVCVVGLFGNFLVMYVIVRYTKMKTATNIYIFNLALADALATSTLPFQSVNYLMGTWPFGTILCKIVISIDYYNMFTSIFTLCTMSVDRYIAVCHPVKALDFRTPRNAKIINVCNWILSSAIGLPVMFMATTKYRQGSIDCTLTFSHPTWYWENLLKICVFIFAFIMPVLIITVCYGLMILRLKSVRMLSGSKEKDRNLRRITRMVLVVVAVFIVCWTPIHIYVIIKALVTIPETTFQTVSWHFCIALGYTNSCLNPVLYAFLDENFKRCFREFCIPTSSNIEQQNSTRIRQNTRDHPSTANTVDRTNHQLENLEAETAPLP
T2 sequence (P41145 whole entry): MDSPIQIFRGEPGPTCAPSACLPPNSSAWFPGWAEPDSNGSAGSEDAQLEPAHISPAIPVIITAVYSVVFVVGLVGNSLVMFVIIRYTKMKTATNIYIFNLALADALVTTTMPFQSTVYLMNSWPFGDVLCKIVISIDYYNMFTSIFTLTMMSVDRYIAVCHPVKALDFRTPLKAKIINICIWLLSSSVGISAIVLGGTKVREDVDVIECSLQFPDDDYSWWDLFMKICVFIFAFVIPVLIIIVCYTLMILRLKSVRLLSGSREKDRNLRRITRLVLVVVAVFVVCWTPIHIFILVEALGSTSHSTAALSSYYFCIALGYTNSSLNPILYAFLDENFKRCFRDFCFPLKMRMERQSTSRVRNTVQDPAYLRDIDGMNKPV
Kappa-type opioid receptor (Mus musculus, UniProt P33534), sequence (P33534 whole entry): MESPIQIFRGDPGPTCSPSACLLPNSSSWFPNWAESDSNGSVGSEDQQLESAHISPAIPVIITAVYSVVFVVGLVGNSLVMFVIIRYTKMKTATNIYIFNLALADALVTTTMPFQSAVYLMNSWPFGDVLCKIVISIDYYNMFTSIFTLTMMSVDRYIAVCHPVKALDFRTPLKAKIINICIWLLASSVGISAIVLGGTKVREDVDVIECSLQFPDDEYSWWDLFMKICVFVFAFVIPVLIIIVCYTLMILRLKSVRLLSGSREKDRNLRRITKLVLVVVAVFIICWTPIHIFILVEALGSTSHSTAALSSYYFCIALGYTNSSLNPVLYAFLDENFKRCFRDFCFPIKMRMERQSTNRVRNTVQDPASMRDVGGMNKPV
Kappa-type opioid receptor (Cavia porcellus), sequence (P41144 whole entry): as the sequence (P41144 whole entry) above

## C[C@H]1[C@H]2Cc3ccc(C(N)=O)cc3[C@@]1(C)CCN2CC1CC1
[1]
  Ki: 4.9 nM
Mus musculus [2]
  ED50: 0.21 nmol

## C[N+]1(CC2CC2)CC[C@]23c4c5ccc(O)c4O[C@H]2C(=O)CC[C@@]3(O)[C@H]1C5 (some centres not stated) [METHYLNALTREXONE]
[3]
  Ki: ~30 nM
[4]
  EC50: 6.7 nM
Mu-type opioid receptor [5]
  Ki: 10 nM

## CN(C(=O)/C=C/c1ccoc1)[C@@H]1CC[C@@]2(O)[C@H]3Cc4ccc(O)c5c4[C@@]2(CCN3CC2CC2)[C@H]1O5 [NALFURAFINE]
Mus musculus [6]; Mus musculus, read-out: ED50
  ED50: 0.062 mg/kg
Mus musculus [7]; Mus musculus, read-out: ED50
  ED50: 3 µg/kg

## O=C1CNC(=O)[C@H](Cc2ccccc2)NC(=O)[C@@H](Cc2c[nH]c3ccccc23)NC(=O)CCN1 (cyclo(FG[βAla][dW]))
[1]
  Ki: > 10 nM
[8]
  Ki: > 10 nM

## CC(C)=CCN1CC[C@]2(C)c3cc(O)ccc3C[C@H]1[C@H]2C [(+)-PENTAZOCINE]
[9]
  Ki: 7.6 nM
[4]
  EC50: 40 nM
[10]
  Ki: 62 nM

## O=C(N[C@@H]1CC[C@@]2(O)[C@H]3Cc4ccc(O)c5c4[C@@]2(CCN3CC2CC2)[C@H]1O5)c1ccc2ccccc2c1
Mus musculus [11]
  ED50: 18.7 pmol

## CC(C)=CCN1CC[C@@]2(C)c3cc(O)ccc3CC1C2C (some centres not stated) [PENTAZOCINE]
[9]
  Ki: 7.6 nM
[4]
  EC50: 40 nM
[10]
  Ki: 62 nM

## O=C(N[C@@H]1C=C[C@H]2[C@H]3Cc4ccc(O)c5c4[C@@]2(CCN3CC2CC2)[C@H]1O5)c1cccc(I)c1
Mus musculus [12]
  ED50: 1 mg/kg
[1]
  Ki: 0.08 nM
[13]
  Ki: 0.006 nM
Mus musculus [14]
  ED50: 0.33 mg/kg
Mu-type opioid receptor [5]
  Ki: 0.021 nM

## CCCCN(CCc1ccccc1)CCc1cccc(O)c1
[15]
  Activity: 45.5%
[10]
  Ki: 2700 nM
Mu-type opioid receptor [5]
  Ki: 360 nM

## C#Cc1occc1[C@@H]1C[C@@]2(C)[C@@H](CC[C@@]3(C)[C@H](C(=O)OC)C[C@H](OC(C)=O)C(=O)[C@@]32C)C(=O)O1
[9]
  Ki: 2.5 nM

## C[C@H]1[C@H]2Cc3ccc(O)cc3[C@@]1(C)CCN2CCc1ccccc1
Mus musculus [6]; Mus musculus, read-out: ED50
  ED50: 6.3 mg/kg

## COC(=O)[C@@H]1C[C@H](OC(=O)C2=Cc3ccccc3C2)C(=O)[C@H]2[C@@]1(C)CC[C@H]1C(=O)O[C@H](c3ccoc3)C[C@]21C
Mu-type opioid receptor [16]
  EC50: 49.5 nM
[9]
  Ki: 49.7 nM
[4]
  EC50: 853 nM
Mu-type opioid receptor [5]
  Ki: 538 nM

## C[C@H]1[C@@H]2Cc3ccc(O)cc3[C@]1(C)CCN2CC1CC1
Mus musculus [17]
  ED50: 0.077 mg/kg
Mus musculus [18]
  ED50: 0.47 mg/kg

## CC(C)C[C@@H](NC(=O)[C@@H](Cc1ccccc1)NC(=O)[C@H](N)Cc1ccccc1)C(=O)N[C@H](CCCCN)C(=O)N1CCC(N)(C(=O)O)CC1 [listing 1 of 2 here]
Mus musculus [19]
  ED50: 0.3 mg/kg
Mus musculus [20]
  ED50: 0.38 mg/kg
Mus musculus [21]
  ED50: 0.3 mg/kg
Mus musculus [22]
  ED50: 0.07 mg/kg

## CCCC[C@@H](NC(=O)[C@@H](CC1=CC=CCC1)NC(=O)[C@H](N)Cc1ccccc1)C(=O)N[C@H](CCCNC(=N)N)C(N)=O
[9]
  Ki: < 1 nM

## CCCC[C@@H](NC(=O)[C@@H](CC1=CC=CCC1)NC(=O)[C@H](N)Cc1ccccc1)C(=O)N[C@H](CCCNC(=N)N)C(=O)NCc1ccncc1
[9]
  Ki: 0.24 nM
Mus musculus [23]
  AD50: 7 µg/kg

## CN(C(=O)C(c1ccccc1)c1ccccc1)[C@H](CN1CC[C@H](O)C1)c1ccccc1 [ASIMADOLINE]
[24]
  Ki: 5.6 nM

## Cc1ccc(CSc2nnc(-c3ccccn3)n2Cc2ccco2)cc1C(F)(F)F
[10]
  Ki: 5350 nM
Mu-type opioid receptor [5]
  Ki: 1900 nM

## O=C(N[C@@H]1CC[C@@]2(O)[C@H]3Cc4ccc(O)c5c4[C@@]2(CCN3CC2CC2)[C@H]1O5)c1cc[n+](Cc2ccccc2)cc1
[9]
  Ki: 3.46 nM
[1]
  Ki: 722 nM
Mu-type opioid receptor [5]
  Ki: 3.46 nM

## N=C(N)Nc1ccc2c3c([nH]c2c1)[C@@H]1Oc2c(O)ccc4c2[C@@]12CCN(CC1CC1)[C@H](C4)[C@]2(O)C3
Mu-type opioid receptor [25]
  Ki: 20.3 nM
[26]
  Ki: 81.8 nM

## COC(=O)[C@@H]1C[C@H](OC(C)=O)[C@H](O)[C@H]2[C@@]1(C)CC[C@H]1C(=O)O[C@H](c3ccoc3)C[C@]21C [1-ALPHA-HYDROXYSALVINORIN A]
[27]
  half-life: 225 min
[28]
  half-life: 225 min
[29]
  half-life: 225 min

## Cc1cc(C)cc([C@@H]2CCCN2Cc2ccc(Oc3ccc(C(N)=O)cc3F)cc2)c1 [ATICAPRANT]
[30]
  half-life: 1260 min
[31]
  Tmax: 1 h

## CN1CC[C@]23c4c5ccc(O)c4O[C@H]2C(=O)CC[C@@]3(OCCCc2ccccc2)[C@H]1C5
Mus musculus [32]
  AD50: 0.7 µg/kg
[33]
  Ki: 0.13 nM
Mu-type opioid receptor [25]
  Ki: 0.073 nM
[13]
  Ki: 0.3 nM

## COC(=O)N1CCN(C(=O)Cc2ccc(Cl)c(Cl)c2)C(CN2CCCC2)C1 (configuration not stated)
Mus musculus [34]
  ED50: 0.52 µg/kg
[35]
  IC50: 0.041 nM

## Oc1ccc2c(c1)[C@@]13CCCC[C@H]1[C@@H](C2)N(CC1CCC1)CC3 [BUTORPHAN]
Mus musculus [6]
  ED50: 0.79 nmol
Mus musculus [7]
  ED50: 7.3 nmol

## CC(C)C[C@@H](NC(=O)[C@@H](Cc1ccccc1)NC(=O)[C@H](N)Cc1ccccc1)C(=O)N[C@H](CCCCN)C(=O)N1CCC(N)(C(=O)O)CC1 [listing 2 of 2 here]
[9]
  Ki: 0.32 nM
Mu-type opioid receptor [5]
  Ki: > 10000 nM

## O=C(O[C@@H]1[C@@H]2[C@H]3C[C@@H](C[C@H]2C(=O)O[C@H]1c1ccoc1)OC3=O)c1ccccc1
[36]
  EC50: 2 nM
[13]
  Ki: 9 nM
[37]
  Ki: > 5 µM

## CC(C)C[C@@H](NC(=O)[C@@H](CC1=CC=CCC1)NC(=O)[C@H](N)Cc1ccccc1)C(=O)N[C@H](CCCN)C(=O)N1CCOCC1
[9]
  Ki: 0.08 nM
Mus musculus [23]
  AD50: 13 µg/kg
